The values below come from patent publication US6777237B2, “Bioconjugates and delivery of bioactive agents” (University of Utah Research Foundation, priority 1996, dated 2004).

In general, IC50 refers to the concentration that gives 50% inhibition. Higher therefore signals weaker potency.

In one data set the test system is RD-995 cell line. The experiment in a line: MTT cell viability assay, RD-995 cell line. The format is cell-based, mouse.
A further data set deals with Meth-A cell line. The experiment in a line: MTT cell viability assay, Meth-A cell line. The format is cell-based, mouse.
A further data set has as its system HCT-116 cell line. The experiment in a line: MTT cell viability assay, HCT-116 cell line. Format: cell-based, human. The following applies: for IC50: HCT-116.
A further data set concerns B-16 cell line. The experiment in a line: MTT cell viability assay, B-16 cell line. The format is cell-based, mouse. A general note: Formazan colour is commonly taken as a measure of viable cells.
In another data set the test system is HL-60 cell line. The experiment in a line: MTT cell viability assay, HL-60 cell line. Format: cell-based, human. The following applies: for IC50: HL-60.
A short description of data set [1]: Thermal stability of bioconjugates in media (UV-vis, then photolysis check). Format: physicochemical.
Data set [2] in a line: Anaerobic continuous-wave photolysis of methylcob(III)alamin. Format: physicochemical. The following applies: 514 nm light from an Argon-ion laser. The procedure:
A protocol for a typical anaerobic continuous-wave photolysis of methylcob(III)alamin or CH3Cbl^III is as follows. An aqueous solution of 200 μM CH3Cbl^III and 50 mM K^+ Hepes pH 7.3 is placed in a 1 cm quartz cuvette. Samples that are to be photolyzed under anaerobic conditions are either subjected to repeated freeze-pump-thaw cycles, or purged with Ar for 40 minutes immediately prior to photolysis and sealed. Continuous-wave visible light irradiation is accomplished at the desired wavelength with an Ar^+ pumped dye laser. The incident light on the face of the cuvette is reduced to 12 mW cm^−2 with neutral density filters. The light flux is determined by potassium ferrioxalate actinomety and by a Scientech surface-reading thermopile. The cuvette is placed in a thermostated cell holder at 25-37° C. […] The magnetic field within the area of the cuvette is homogeneous to within 2% and the long term stability is better than 0.5% as monitored by a transverse Hall probe and digital teslameter.
Absorption spectra from 300-600 nm are recorded in one second with a diode array spectrophotometer at variable time intervals from 10 seconds to 2 minutes (depending upon the fluence of the photolyzing light source) for a total of 3 τ1/2. […] The concentration of CH3Cbl^III is determined using the measured absorbance at 350 or 520 nm by the method of Chen and Chance (1993). […]

Where [3] appears, read: Mus musculus, unconjugated chlorambucil.
Where [4] appears, read: Homo sapiens, unconjugated chlorambucil.
The mark [5] stands for this setting: Photolysis (10 min irradiation, 1 h after treatment).

On to `O=C(O)CCCc1ccc(N(CCCl)CCCl)cc1` [Chlorambucil, reference compound], for which the half-maximal inhibitory concentration (IC50) is 1.1 µM with RD-995 cell line (setting [3]); 1.8 µM with Meth-A cell line (setting [3]); 20.8 µM with HCT-116 cell line (setting [4]); 1.4 µM with B-16 cell line (Mus musculus, B16, unconjugated chlorambucil); 5.8 µM in the data set on HL-60 cell line (setting [4]). Also, the LD50 entry was “about 2 μM” in the data set with HCT-116 cell line (HCT-116, FIG. 5, chlorambucil alone) and 0.5 µM in the data set on HL-60 cell line (HL-60, FIG. 6, unconjugated chlorambucil standard).
Take “4-[4′-(bis-[2-chloroethyl]amino)phenyl]butyroylcob(III)alamin [compound 4]”: the concentration for half-maximal inhibition (IC50) in the data set with RD-995 cell line (setting [5]) is 0.3 µM; with Meth-A cell line (No Photolysis), 84.2 µM; in the data set with Meth-A cell line (setting [5]), 0.3 µM; with HCT-116 cell line (setting [5]) it was 1.1 µM; in the data set on B-16 cell line (setting [5]) it was 0.3 µM; in the data set with HL-60 cell line (No Photolysis), 8.9 µM. Moreover, the thermal lability result in data set [1] was “thermal lability”.
`C/C1=C2/[N-][C@H]([C@H](CC(N)=O)[C@@]2(C)CCC(=O)NC[C@@H](C)OP(=O)([O-])O[C@H]2[C@@H](O)[C@@H](n3cnc4cc(C)c(C)cc43)O[C@@H]2CO)[C@]2(C)N=C(/C(C)=C3N=C(/C=C4N=C1[C@@H](CCC(N)=O)C\4(C)C)[C@@H](CCC(N)=O)[C@]\3(C)CC(N)=O)[C@@H](CCC(N)=O)[C@]2(C)CC(N)=O.[CH3-].[Co]` [CH3Cbl^III, methylcob(III)alamin]: the photolysis quantum yield result in data set [2] is given as “about 0.3”.
As to “2-[4-(4′-[bis-(2-chloroethyl)amino]phenyl)butyroxy]ethylcob(III)alamin [compound 3]”, the half-maximal inhibitory concentration (IC50) in the data set on RD-995 cell line (setting [5]) was 0.2 µM; with Meth-A cell line (No Photolysis) it was 210 µM; with Meth-A cell line (setting [5]), 0.2 µM; in the data set with HCT-116 cell line (setting [5]), 1.7 µM; in the data set with B-16 cell line (setting [5]), 0.6 µM; in the data set with HL-60 cell line (No Photolysis) it was 3.2 µM. The LD50 turned out to be 0.08 µM with HCT-116 cell line (HCT-116, FIG. 5, brief irradiation with red light 12 hours after dosing); 2 µM in the data set on HCT-116 cell line (HCT-116, FIG. 5, photolysis with 10-fold excess of vitamin B12 added); 0.2 µM with HL-60 cell line (HL-60, FIG. 6, bioconjugate, no photolysis). Further, the toxicity entry is “no substantial toxicity” with HCT-116 cell line (HCT-116, FIG. 5, no photolysis, at concentrations approaching 100 μM) and “absence of toxicity” in the data set on HL-60 cell line (HL-60, FIG. 6, with addition of 10 equivalents of vitamin B12, no photolysis). In addition, the thermal lability result in data set [1] is on record as “thermal lability”. Moreover, the “fold better than unconjugated chlorambucil standard (LD50)” value in the data set on HL-60 cell line (HL-60, FIG. 6, no photolysis) is listed as “at least 2 fold”.
